Measurements taken from US8597660B2, “Therapeutic approach to neurodegenerative disorders using a TFP5-peptide” (The United States of America, as represented by the …, priority 2010, dated 2013).
Entries after “also recorded” stand apart in the source; their conditions may differ.

Tests used:
[1] = test system: Cdk5/P35; experiment: Kinase assay of Cdk5 immunoprecipitates from cortical neurons, infected or endogenous Cdk5/P35; type: cell-based, rat; settings: E-18 rat cortical neurons co-infected with P5
Protocol: (§1) Briefly, 7 days in culture (7 DIC) primary rat cortical neurons were infected with P25, P35, Cdk5 wild-type, dominant negative-Cdk5 and P5 using the lentiviral gene delivery as described earlier. Cdk5 was immunoprecipitated using the polyclonal C8 antibody overnight at 4° C. and immunoglobulin isolated using Protein A sepharose beads for 2 hours at 4° C. Immunoprecipitates were washed three times with lysis buffer and then once with 1× kinase buffer containing 20 mM Tris-Cl pH 7.4, 1 mM EDTA, 1 mM EGTA, 10 mM MgCl2, 10 mM sodium fluoride and 1 mM sodium orthovanadate. Endogenous Cdks were immunoprecipitated from HEK 293 cells using their respective antibodies and treated as above. […] ATP with 20 μg of histone H1 as the substrate. Phosphorylation was performed in a final volume of […] incubated at 30° C. for 60 minutes, stopped by the addition of 10% SDS sample buffer and heating at 95° C. for 5 minutes. Samples were separated by SDS-PAGE, gels were stained with Coomassie, destained, dried and exposed to autoradiography. In pad assays, 25 μl aliquots of the incubation mixture were placed on a Whatman p80 paper square, washed and dried and placed in a scintillation vial for counting.

[2] = target: T1, Cdk5/P35 (Rattus norvegicus, UniProt Q03114); experiment: as above; type: cell-based; settings: cortical neurons infected only with P5, or uninfected treated with 20 μM roscovitine
T1 construct: endogenous in cells; host or cells: E-18 rat cortical neurons
Protocol: as §1

[3] = test system: Cdc2, Cdk2, Cdk4, and Cdk6; experiment: Kinase pad assay on Cdk immunoprecipitates of untreated HEK293 lysates with added P5 peptide; type: biochemical, human; settings: P5 peptide up to 1.8 μM; roscovitine 20 μM
Protocol: as §1

[4] = test system: cortical neurons; experiment: TUNEL assay of Aβ-induced apoptosis in cortical neurons; type: cell-based, rat; settings: neurons transfected with GFP-P5, Aβ 6 h
Protocol: Primary cortical neuron cells were cultured for 5 days on glass coverslips coated with poly-L-lysine, and transfected with or without P5 using Lipofectamine 2000. After 24 hours, TUNEL staining was done according to the manufacturer's instructions. Cells were washed three times in PBS, fixed for 1 hour at room temperature in fresh 4% paraformaldehyde in PBS, and permeabilized (0.1% Triton X-100 in 0.1 sodium citrate) for 2 minutes on ice. After washing 2× with PBS, TUNEL reaction mixture (50 μl) was added and incubated in a humidified atmosphere at 37° C. for 1 hour. TUNEL staining and fluorescent images were visualized with a Zeiss LSM-510 laser-scanning confocal microscope. Images were processed and merged by Adobe Photoshop software.
To determine whether P5 inhibited neuronal apoptosis induced by Aβ, primary cortical neurons (5 days in culture (DIC)) were transfected with P5-GFP using Lipofectamine 2000. After 24 hours, cells were exposed to Aβ for 6 hours. The neurons were fixed and subjected to TUNEL staining, while P5 was visualized by (green fluorescent protein) GFP. […] The data are quantified in FIG. 5B. More than 85% of nontransfected neurons were apoptosis positive. […] Cortical neurons infected with or without P5 and treated with Aβ for 6 hours were assayed for cleaved caspase 3 by Western blot analysis (FIG. 5C). […]. […] The data are quantified in FIG. 5D.

[5] = test system: Cdc2, Cdk2, Cdk4, and Cdk6; experiment: Kinase assay of cell cycle Cdk immunoprecipitates from HEK293 cells infected with P5-myc or treated with roscovitine; type: cell-based, human; settings: HEK293 cells infected with P5-myc or treated with 20 μM roscovitine
Protocol: as §1

[6] = target: Cdk5/P35 (Homo sapiens, UniProt Q00535); experiment: Cdk5/P35 kinase assay after pre-incubation with β-tubulin; type: biochemical
Protocol: Tubulin polymerization was performed as detailed in a previous report (Hou et al., J. Biol. Chem., 282(26), 18666-18670, 2007). Briefly, active kinase Cdk5/P35 (2 ng/μL) or active Cdk5/P25 (1 ng/μL) were incubated with β-tubulin (enzyme: tubulin at 1:100) in the PEM buffer (80 mM PIPES, 2 mM MgCl2, 1 mM EGTA PH 7.0) supplemented with 1 mM GTP at 35° C. for 45 minutes. Following the incubation, Cdk5 kinase assays were performed with or without the addition of 0.45 μM or 0.90 μM P5.
To further explore this possibility, β-tubulin (which is enriched in neurons) was used to perform a study in vitro to mimic P35 interactions in cells. Cdk5/P35 and Cdk5/P25 active kinases were pre-incubated with β-tubulin (Cdk5 kinase:tubulin=1:100) respectively at 35° C. for 45 minutes to 1 hour under conditions that would promote tubulin polymerization, followed by a Cdk5 kinase assay with/without the addition of P5. […] Cdk5/P25 activity, however, was inhibited 60% after pre-incubation at the lower P5 concentration (0.45 μM) (FIG. 9B, lane 4 compared with lane 1) (p<0.01). […] On the other hand, P25, lacking the P10 domain, fails to bind these proteins, and P5 readily binds with Cdk5 in the Cdk5/P25 complex to inhibit activity.

Cdk5/P35 (Homo sapiens, UniProt Q00535), sequence (Q00535 whole entry, species assumed): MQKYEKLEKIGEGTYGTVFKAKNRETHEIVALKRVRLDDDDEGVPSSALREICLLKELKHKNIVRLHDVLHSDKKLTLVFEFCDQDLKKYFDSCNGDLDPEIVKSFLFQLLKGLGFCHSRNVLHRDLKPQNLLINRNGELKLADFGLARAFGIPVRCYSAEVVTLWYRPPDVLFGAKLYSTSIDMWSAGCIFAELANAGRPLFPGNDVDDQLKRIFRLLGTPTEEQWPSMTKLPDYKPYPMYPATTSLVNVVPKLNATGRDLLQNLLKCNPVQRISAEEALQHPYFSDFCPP
T1 sequence (Q03114 whole entry): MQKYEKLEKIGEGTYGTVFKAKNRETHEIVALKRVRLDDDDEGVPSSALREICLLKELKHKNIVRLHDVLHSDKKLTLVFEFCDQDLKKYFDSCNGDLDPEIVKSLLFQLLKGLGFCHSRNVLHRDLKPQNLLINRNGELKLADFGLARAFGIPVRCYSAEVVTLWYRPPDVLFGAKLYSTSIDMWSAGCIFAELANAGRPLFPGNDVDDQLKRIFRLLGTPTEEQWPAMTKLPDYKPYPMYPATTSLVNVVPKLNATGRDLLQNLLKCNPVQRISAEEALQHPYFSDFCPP
T1 sequence (P61810 2-307 partner): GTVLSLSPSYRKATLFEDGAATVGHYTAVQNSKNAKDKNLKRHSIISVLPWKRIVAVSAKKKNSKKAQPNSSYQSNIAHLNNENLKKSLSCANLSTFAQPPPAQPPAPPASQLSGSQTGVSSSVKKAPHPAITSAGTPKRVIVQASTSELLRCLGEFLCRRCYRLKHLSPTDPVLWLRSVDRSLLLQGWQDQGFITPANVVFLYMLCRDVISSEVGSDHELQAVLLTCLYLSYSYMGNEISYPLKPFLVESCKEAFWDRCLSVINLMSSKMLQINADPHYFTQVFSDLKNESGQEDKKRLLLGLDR

Substance: P5: 24 residue peptide derived from Cdk5 activator P35 (K254-A277 of SEQ ID NO: 16); Cdk5 inhibitory peptide (KEAFWDRCLSVINLMSSKMLQINA; listed as Homo sapiens)
- Inhibition of Cdk5 activity in neurons co-infected with Cdk5/P35 [1]: 10-20%
- Effect on endogenous Cdk5/P35 activity [2]: no reduction in activity
- Inhibition of cell cycle Cdk activities in vitro [3]: virtually no inhibition; also recorded: minimal inhibition of Cdc2 and Cdk4 activities
- Aβ-induced apoptosis (TUNEL) [4]: virtually all P5 transfected cells were protected from Aβ-induced apoptosis; also recorded: clearly inhibited Aβ-mediated neuronal apoptosis
- Inhibition of endogenous cell cycle Cdk activity [5]: virtually no effect; also recorded: no inhibition in all cases; also recorded: unaffected by P5
- Inhibition of Cdk5/P35 activity pre-incubated with polymerized tubulin ([6]; 0.45 μM P5): no effect on pre-incubated Cdk5/P35 activity; also recorded: not inhibited; also recorded: had no effect on Cdk5/P35
- Inhibition of Cdk5/P35 activity with unpolymerized tubulin (no pre-incubation) ([6]; 0.45 μM P5): P5 inhibits both kinases equally; also recorded: inhibited both Cdk5/P35 and Cdk5/P25 activities equally; also recorded: inhibited both complexes equally
- Inhibition of Cdk5/P35 activity pre-incubated with polymerized tubulin ([6]; 0.9 μM P5): both kinase complexes are inhibited equally; also recorded: both Cdk5 complexes were inhibited
